# Experimental data taken from US20240299385A1 (ReWind Therapeutics NV, priority 2021, published 2024).
# Molecular target: T1, human GPR17 receptor (Homo sapiens, UniProt Q13304)
# T1 construct: host or cells: HEK-293
# Assay: Calcium mobilization functional assay (Fluo-8, FLIPR TETRA) in HEK-293 hGPR17 (Gα-q assay)
# Assay type: cell-based
# Settings: antagonism of MDL29,951 (~EC80) induced Ca2+ signal; cell line (HEK-293 hGPR17 or HEK-293 Suchi5 hGPR17) not given
# Procedure, shortened: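 Fluo-8-loaded HEK-293 hGPR17 cells (60 min dye loading, room temperature) were preincubated with compound for twenty minutes, then challenged with agonist MDL29,951 at ~EC80, 500 nM. Intracellular calcium release via Gα-q was recorded as FLIPR fluorescence for a further 2 minutes; compounds tested in duplicate.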
# T1 sequence (Q13304 whole entry): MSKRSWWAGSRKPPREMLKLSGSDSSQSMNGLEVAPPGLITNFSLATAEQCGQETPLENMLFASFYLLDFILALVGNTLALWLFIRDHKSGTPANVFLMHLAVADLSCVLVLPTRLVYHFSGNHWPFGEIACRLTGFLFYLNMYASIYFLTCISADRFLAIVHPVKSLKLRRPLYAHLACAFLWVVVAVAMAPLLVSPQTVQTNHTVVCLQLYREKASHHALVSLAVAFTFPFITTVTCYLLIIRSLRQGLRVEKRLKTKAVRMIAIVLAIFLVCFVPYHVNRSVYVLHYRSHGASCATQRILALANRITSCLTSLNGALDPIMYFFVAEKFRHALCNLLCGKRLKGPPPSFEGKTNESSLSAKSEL
row,Compound,IC50
1,"Cc1ccc(-c2cc(S(=O)(=O)Nc3cc(F)c(C(F)(F)F)cc3F)c[nH]2)s1 [Cpd 274, N-[2,5-difluoro-4-(trifluoromethyl)phenyl]-5-(5-methyl-2-thienyl)-1H-pyrrole-3-sulfonamide]",500 to 5000 nM
2,"O=S(=O)(Nc1cc(F)c(C(F)(F)F)cc1F)c1c[nH]c(-c2ccco2)c1 [Cpd 275, N-[2,5-difluoro-4-(trifluoromethyl)phenyl]-5-(2-furyl)-1H-pyrrole-3-sulfonamide]",< 500 nM
3,"O=S(=O)(Nc1cc(F)c(C(F)(F)F)cc1F)c1c[nH]c(-c2ccoc2)c1 [Cpd 276, N-(2,5-difluoro-4-(trifluoromethyl)phenyl)-5-(furan-3-yl)-1H-pyrrole-3-sulfonamide]",< 500 nM
4,"Cn1cncc1-c1cc(S(=O)(=O)Nc2cc(F)c(C(F)(F)F)cc2F)c[nH]1 [Cpd 277, N-[2,5-difluoro-4-(trifluoromethyl)phenyl]-5-(3-methylimidazol-4-yl)-1H-pyrrole-3-sulfonamide]",500 to 5000 nM
5,"O=S(=O)(Nc1cc(F)c(C(F)(F)F)cc1F)c1c[nH]c(-c2ccsn2)c1 [Cpd 278, N-[2,5-difluoro-4-(trifluoromethyl)phenyl]-5-isothiazol-3-yl-1H-pyrrole-3-sulfonamide]",< 500 nM
6,"Cc1cccc(-c2cc(S(=O)(=O)Nc3cc(F)c(C(F)(F)F)cc3F)c[nH]2)n1 [Cpd 279, N-[2,5-difluoro-4-(trifluoromethyl)phenyl]-5-(6-methyl-2-pyridyl)-1H-pyrrole-3-sulfonamide]",500 to 5000 nM
7,"Cc1ccc(-c2cc(S(=O)(=O)Nc3cc(F)c(C(F)(F)F)cc3F)c[nH]2)nc1 [Cpd 280, N-[2,5-difluoro-4-(trifluoromethyl)phenyl]-5-(5-methyl-2-pyridyl)-1H-pyrrole-3-sulfonamide]",500 to 5000 nM
8,"COc1cccc(-c2cc(S(=O)(=O)Nc3cc(F)c(C(F)(F)F)cc3F)c[nH]2)n1 [Cpd 281, N-[2,5-difluoro-4-(trifluoromethyl)phenyl]-5-(6-methoxy-2-pyridyl)-1H-pyrrole-3-sulfonamide]",< 500 nM
9,"O=S(=O)(Nc1cc(F)c(C(F)(F)F)cc1F)c1c[nH]c(-c2ncccc2C(F)(F)F)c1 [Cpd 282, N-[2,5-difluoro-4-(trifluoromethyl)phenyl]-5-[3-(trifluoromethyl)-2-pyridyl]-1H-pyrrole-3-sulfonamide]",5000 to 50000 nM
10,"COc1cccc(-c2cc(S(=O)(=O)Nc3ccc(C#N)cc3F)c[nH]2)c1C [Cpd 283, N-(4-cyano-2-fluoro-phenyl)-5-(3-methoxy-2-methyl-phenyl)-1H-pyrrole-3-sulfonamide]",5000 to 50000 nM
11,"N#Cc1ccc(NS(=O)(=O)c2c[nH]c(-c3ccc(F)c(Cl)c3)c2)c(F)c1 [Cpd 284, 5-(3-chloro-4-fluoro-phenyl)-N-(4-cyano-2-fluoro-phenyl)-1H-pyrrole-3-sulfonamide]",500 to 5000 nM
12,"Cc1ccc(F)cc1-c1cc(S(=O)(=O)Nc2ccc(C#N)cc2F)c[nH]1 [Cpd 285, N-(4-cyano-2-fluoro-phenyl)-5-(5-fluoro-2-methyl-phenyl)-1H-pyrrole-3-sulfonamide]",< 500 nM
13,"Cc1cc(NS(=O)(=O)c2c[nH]c(-c3ccccn3)c2)c(F)cc1C#N [Cpd 286, N-(4-cyano-2-fluoro-5-methyl-phenyl)-5-(2-pyridyl)-1H-pyrrole-3-sulfonamide]",500 to 5000 nM
14,"N#Cc1ccc(NS(=O)(=O)c2c[nH]c(-c3ccc(Cl)c(F)c3)c2)c(F)c1 [Cpd 287, 5-(4-chloro-3-fluoro-phenyl)-N-(4-cyano-2-fluoro-phenyl)-1H-pyrrole-3-sulfonamide]",500 to 5000 nM
15,"Cc1cc(F)cc(-c2cc(S(=O)(=O)Nc3ccc(C#N)cc3F)c[nH]2)c1 [Cpd 288, N-(4-cyano-2-fluoro-phenyl)-5-(3-fluoro-5-methyl-phenyl)-1H-pyrrole-3-sulfonamide]",500 to 5000 nM
16,"N#Cc1ccc(NS(=O)(=O)c2c[nH]c(-c3c(F)cccc3Cl)c2)c(F)c1 [Cpd 289, 5-(2-chloro-6-fluoro-phenyl)-N-(4-cyano-2-fluoro-phenyl)-1H-pyrrole-3-sulfonamide]",< 500 nM
